This is an account of results in article PMC10178848, “Modulating fast skeletal muscle contraction protects skeletal muscle in animal models of Duchenne muscular dystrophy” (The Journal of Clinical Investigation, 2023).

Usually IC50 stands for the concentration at which inhibition is half-maximal.

For assay [1], the system named is Human Soleus myofibrils. The assay can be described thus: Myofibril ATPase, human soleus. The class given is biochemical. How it is done: Myofibrils were prepared from various animals and tissues: rabbit psoas muscle and porcine cardiac muscle were purchased from Pel-Freez Biologicals. Human bicep and soleus muscle were purchased from BioIVT, and neonatal rat muscle was obtained in house. All myofibrils were prepared using published methods ([21]).
A lactate dehydrogenase/pyruvate kinase enzyme-coupled system ([62]) was used to monitor ATP hydrolysis rates in various muscle preparations. Rabbit psoas myofibrils were used for high-throughput screening at pCa 6.25 at 0.25 mg/mL. A multidrop cassette (Thermo Fisher Scientific) dispensed 10 μL of the coupled enzyme system, calcium, and myofibrils to 10 μL ATP, NADH and PEP to initiate the reaction prior to reading on a plate reader (Envision, Perkin Elmer) for 10 minutes per plate at room temperature. Hits were reconfirmed, and secondary assays were used to evaluate selectivity, including bovine cardiac myofibrils (pCa 5.86) and enzyme coupled hits with a hexokinase screen (Sigma-Aldrich).

The target of assay [2] is T1, smooth muscle myosin S1 isolated from chicken gizzard (Gallus gallus, UniProt P10587).
T1 construct: purchased Cytoskeleton Inc; host or cells: chicken gizzard
The assay can be described thus: Actin-activated myosin S1 ATPase, smooth muscle. The class given is biochemical. The method, then:
Smooth muscle chicken gizzard S1 was purchased from Cytoskeleton Inc. Other myosin S1 was prepared via published protocols ([21]). Briefly, fresh rabbit psoas and frozen porcine ventricular muscle (Pel-freez) were extracted in 0.3 M KCl, 0.15 M KH2PO4, 1 mM EGTA, 1 mM ATP, 1 mM DTT, pH 6.5, at 4°C. Full-length myosin was purified from each extract via low-ionic precipitations with final precipitation into PM12 buffer (12 mM PIPES, pH 7.0, 2 mM MgCl2). Purified myosin was resuspended in PIPES/EDTA buffer (20 mM PIPES, pH 6.8, 10 mM EDTA, 1 mM DTT) and reacted with 0.2 mg/mL α-chymotrypsin for 30 minutes at room temperature. Proteolysis was quenched with PMSF (final concentration 100 μM), and the reaction was centrifuged for 45 minutes at 230,000g. S1 fragment in the supernatant was dialyzed into PM12 with 0.02% sodium azide and clarified by centrifugation. Sucrose was added to 10% w/v and flash-frozen in liquid N2 and stored at –80°C. […]
A lactate dehydrogenase/pyruvate kinase enzyme-coupled system ([62]) was used to monitor ATP hydrolysis rates in various muscle preparations. […] A multidrop cassette (Thermo Fisher Scientific) dispensed 10 μL of the coupled enzyme system, calcium, and myofibrils to 10 μL ATP, NADH and PEP to initiate the reaction prior to reading on a plate reader (Envision, Perkin Elmer) for 10 minutes per plate at room temperature. […]

Assay [3] relates to fast rabbit psoas muscle fibers. Nature of the assay: Skinned fiber force, rabbit psoas. Conditions: Oryctolagus cuniculus, maximal force at pCa 4.5, read-out: IC50, force in single skinned fibers. The method, then:
(§1) Measurement of isometric force in skinned fibers from rabbit psoas, rat soleus, and rat cardiac trabeculae were performed as described previously ([65]) with an 802D fiber system (Aurora Scientific). Muscle bundles were thawed from –80°C and placed in relaxing solution. Single fibers were transferred to the testing apparatus with steel pins connected to a force transducer and motor (model 403A and 322C, Aurora Scientific), and collodion glue was applied. Temperature was set to 15°C for skeletal fibers and 30°C for rat cardiac trabeculae. The wells of the 802D were filled with different ratios of relaxing and activating pCa solutions as detailed previously ([65]). All control solutions contained 1% final DMSO. Traces were compared between control and compound runs to evaluate isometric force and calcium sensitivity.

Assay [4] deals with rat cardiac muscle fibers. Nature of the assay: Skinned fiber force, rat cardiac trabeculae. Set-up: dose or concentration left out as unconfirmed. Conditions: rat cardiac trabecular strips. How it is done: as §1
In assay [5] the test system is young mdx mice. The assay can be described thus: 3-week dosing of young (weaning) mdx mice, soleus histology. The format is in vivo, mouse. To be noted: post-weaning mdx mice, 3 weeks. The source says: C57BL/6 (stock no. 000664), C57BL/10J (stock no. 000665, control for mdx experiments), C57BL/10ScSn-Dmd^mdx/J (mdx, stock no. 001801), and D2.B10 (DBA/2-congenic) Dmd^mdx (DBA/2J mdx, stock no. 013141) mice were from The Jackson Laboratory. Sprague-Dawley rats were purchased from Charles River Laboratories. For ex vivo experiments, mice were 10–16 weeks old. For in situ experiments, mice were 8–14 weeks of age. For in vivo chronic dosing studies, mdx and DBA/2J mdx were 4–5 weeks of age at study start. Dosing was via a 10 mL/kg suspension (1% methyl cellulose, 0.1% Tween 80 in water). For studies in 14-day-old preweaning mice, PO dosing was via syrup suspension (3 mg/kg/d). […]
For sterile muscle injury, mice were anesthetized with isoflurane and 50 μL cardiotoxin (12 × 10^–6 M, 217503, Millipore) injected in the TA muscle. […] 8 μm cryosections were cut and stained with H&E. For each analysis, more than 10 slides (per condition/group) containing 6 muscle sections/sample were used, and myofibers in the injured area were counted and measured with a Mirax digital scanner and HALO software ([68]). […] Image analysis was performed using ImarisX64 software (Bitplane AG), and fiber sizing was calculated using minimal Feret’s diameter ([69]). […] Fiber type, size, and central nucleation were quantified with analysis via SMASH ([70]) and ImageJ (NIH). […]

In assay [6] the target is T2, BMPR2 (Homo sapiens, UniProt Q13873).
T2 construct: purchased Eurofins DiscoverX (KINOMEscan; SAFETYscan E/IC50 ELECT)
Nature of the assay: KINOMEscan scanEDGE. The format is binding. Conditions: 20 uM.

For assay [7], the target named is T3, IKK-alpha (Homo sapiens, UniProt O15111).
T3 construct: purchased Eurofins DiscoverX (KINOMEscan; SAFETYscan E/IC50 ELECT)
Nature of the assay: KINOMEscan scanEDGE. The class given is binding. To be noted: 20 uM.

The target of assay [8] is T4, MEK1 (Homo sapiens, UniProt Q02750).
T4 construct: purchased Eurofins DiscoverX (KINOMEscan; SAFETYscan E/IC50 ELECT)
Nature of the assay: KINOMEscan scanEDGE. To be noted: 20 uM. The class given is binding.

The target in assay [9] is T5, MKNK2 (Homo sapiens, UniProt Q9HBH9).
T5 construct: purchased Eurofins DiscoverX (KINOMEscan; SAFETYscan E/IC50 ELECT)
The assay can be described thus: KINOMEscan scanEDGE. The format is binding. To be noted: 20 uM.

Assay [10] concerns the target T6, PIK3CA (Homo sapiens, UniProt P42336).
T6 construct: purchased Eurofins DiscoverX (KINOMEscan; SAFETYscan E/IC50 ELECT)
The assay can be described thus: KINOMEscan scanEDGE. The class given is binding. Conditions: 20 uM.

For assay [11], the target named is T7, SRPK3 (Homo sapiens, UniProt Q9UPE1).
T7 construct: purchased Eurofins DiscoverX (KINOMEscan; SAFETYscan E/IC50 ELECT)
Nature of the assay: KINOMEscan scanEDGE. The format is binding. Conditions: 20 uM.

For assay [12], the target named is T8, YANK3 (Homo sapiens, UniProt Q86UX6).
T8 construct: purchased Eurofins DiscoverX (KINOMEscan; SAFETYscan E/IC50 ELECT)
Nature of the assay: KINOMEscan scanEDGE. The format is binding. To be noted: 20 uM.

Bounds are passed on as bounds.

T8 sequence (Q86UX6 whole entry): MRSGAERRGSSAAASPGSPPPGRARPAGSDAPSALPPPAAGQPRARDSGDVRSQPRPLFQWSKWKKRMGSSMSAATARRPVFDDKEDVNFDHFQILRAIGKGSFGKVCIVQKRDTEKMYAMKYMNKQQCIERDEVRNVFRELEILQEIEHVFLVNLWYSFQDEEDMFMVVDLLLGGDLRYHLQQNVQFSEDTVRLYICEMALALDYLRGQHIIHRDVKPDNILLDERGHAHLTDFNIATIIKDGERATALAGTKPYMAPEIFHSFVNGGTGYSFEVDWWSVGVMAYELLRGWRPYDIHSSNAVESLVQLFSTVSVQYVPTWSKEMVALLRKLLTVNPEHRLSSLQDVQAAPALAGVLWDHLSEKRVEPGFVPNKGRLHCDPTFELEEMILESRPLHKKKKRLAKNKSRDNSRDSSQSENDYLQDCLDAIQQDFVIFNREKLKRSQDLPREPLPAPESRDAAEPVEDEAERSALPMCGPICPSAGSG
T6 sequence (P42336 whole entry): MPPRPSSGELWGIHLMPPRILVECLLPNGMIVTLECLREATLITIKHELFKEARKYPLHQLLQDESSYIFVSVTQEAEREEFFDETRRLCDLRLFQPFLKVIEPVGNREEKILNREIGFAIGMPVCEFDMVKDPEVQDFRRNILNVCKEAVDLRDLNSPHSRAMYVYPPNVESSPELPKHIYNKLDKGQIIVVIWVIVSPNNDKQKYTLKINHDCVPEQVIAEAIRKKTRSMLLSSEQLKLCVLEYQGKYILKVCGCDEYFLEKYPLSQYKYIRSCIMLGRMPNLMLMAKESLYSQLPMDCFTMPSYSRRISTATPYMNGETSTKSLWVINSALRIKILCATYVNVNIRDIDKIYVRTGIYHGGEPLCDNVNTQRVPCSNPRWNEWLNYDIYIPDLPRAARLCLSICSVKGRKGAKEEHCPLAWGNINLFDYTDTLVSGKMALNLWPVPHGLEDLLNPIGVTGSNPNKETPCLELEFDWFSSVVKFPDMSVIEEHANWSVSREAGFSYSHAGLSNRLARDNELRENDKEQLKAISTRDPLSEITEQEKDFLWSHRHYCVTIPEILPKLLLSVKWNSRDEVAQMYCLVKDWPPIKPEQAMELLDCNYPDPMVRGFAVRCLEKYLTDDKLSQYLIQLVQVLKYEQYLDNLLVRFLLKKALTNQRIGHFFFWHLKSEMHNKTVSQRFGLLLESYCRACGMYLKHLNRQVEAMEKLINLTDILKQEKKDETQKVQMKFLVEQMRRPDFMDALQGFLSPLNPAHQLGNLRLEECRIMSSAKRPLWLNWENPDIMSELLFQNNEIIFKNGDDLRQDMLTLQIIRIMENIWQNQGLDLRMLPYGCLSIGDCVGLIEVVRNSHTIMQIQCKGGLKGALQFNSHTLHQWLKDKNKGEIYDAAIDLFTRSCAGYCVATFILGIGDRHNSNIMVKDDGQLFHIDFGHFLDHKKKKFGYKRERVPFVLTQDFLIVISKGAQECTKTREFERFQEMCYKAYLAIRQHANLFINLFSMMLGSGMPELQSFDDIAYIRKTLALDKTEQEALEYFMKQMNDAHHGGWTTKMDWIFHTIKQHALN
T1 sequence (P10587 2-849 limits assumed): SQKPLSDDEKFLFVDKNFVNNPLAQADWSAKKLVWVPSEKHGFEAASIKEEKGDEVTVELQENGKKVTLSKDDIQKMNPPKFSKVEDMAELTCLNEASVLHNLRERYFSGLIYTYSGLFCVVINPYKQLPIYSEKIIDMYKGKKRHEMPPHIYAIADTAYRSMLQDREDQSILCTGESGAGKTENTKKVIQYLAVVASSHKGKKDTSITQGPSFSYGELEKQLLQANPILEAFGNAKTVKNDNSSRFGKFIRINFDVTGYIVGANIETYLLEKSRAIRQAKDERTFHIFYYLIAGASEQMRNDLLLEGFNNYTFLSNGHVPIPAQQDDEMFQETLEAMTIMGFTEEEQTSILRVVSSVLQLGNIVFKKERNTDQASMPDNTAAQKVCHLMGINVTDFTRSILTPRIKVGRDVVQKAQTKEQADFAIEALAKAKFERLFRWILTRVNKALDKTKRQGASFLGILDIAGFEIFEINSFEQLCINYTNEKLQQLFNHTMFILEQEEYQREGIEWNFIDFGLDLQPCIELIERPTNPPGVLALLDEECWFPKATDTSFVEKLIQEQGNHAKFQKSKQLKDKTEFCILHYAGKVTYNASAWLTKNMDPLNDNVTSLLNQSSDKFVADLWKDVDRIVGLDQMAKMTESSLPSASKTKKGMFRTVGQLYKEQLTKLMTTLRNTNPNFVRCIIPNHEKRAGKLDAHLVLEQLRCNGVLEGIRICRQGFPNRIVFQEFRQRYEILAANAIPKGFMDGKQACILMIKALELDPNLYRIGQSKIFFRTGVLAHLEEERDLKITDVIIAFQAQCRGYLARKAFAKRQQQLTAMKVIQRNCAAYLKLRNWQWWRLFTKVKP
T1 sequence (P02607 2-151 partner limits assumed): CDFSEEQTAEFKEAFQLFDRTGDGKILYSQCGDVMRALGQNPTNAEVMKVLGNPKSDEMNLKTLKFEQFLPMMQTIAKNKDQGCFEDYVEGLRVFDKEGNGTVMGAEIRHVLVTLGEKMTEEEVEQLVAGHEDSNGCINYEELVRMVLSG
T7 sequence (Q9UPE1 whole entry): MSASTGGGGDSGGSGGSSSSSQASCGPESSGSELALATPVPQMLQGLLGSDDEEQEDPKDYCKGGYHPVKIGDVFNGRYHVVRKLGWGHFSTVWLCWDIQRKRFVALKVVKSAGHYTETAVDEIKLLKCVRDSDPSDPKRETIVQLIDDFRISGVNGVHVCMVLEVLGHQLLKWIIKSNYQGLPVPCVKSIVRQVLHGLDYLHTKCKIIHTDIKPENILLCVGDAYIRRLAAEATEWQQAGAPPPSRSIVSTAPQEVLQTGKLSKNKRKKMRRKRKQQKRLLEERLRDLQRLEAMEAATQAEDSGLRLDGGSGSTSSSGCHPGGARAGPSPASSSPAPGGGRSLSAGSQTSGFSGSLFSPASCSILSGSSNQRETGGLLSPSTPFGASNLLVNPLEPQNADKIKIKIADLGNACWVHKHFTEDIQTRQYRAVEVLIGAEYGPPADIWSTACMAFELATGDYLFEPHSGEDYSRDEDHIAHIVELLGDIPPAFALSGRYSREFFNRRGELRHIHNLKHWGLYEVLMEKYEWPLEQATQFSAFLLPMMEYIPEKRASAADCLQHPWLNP
T2 sequence (Q13873 27-1038): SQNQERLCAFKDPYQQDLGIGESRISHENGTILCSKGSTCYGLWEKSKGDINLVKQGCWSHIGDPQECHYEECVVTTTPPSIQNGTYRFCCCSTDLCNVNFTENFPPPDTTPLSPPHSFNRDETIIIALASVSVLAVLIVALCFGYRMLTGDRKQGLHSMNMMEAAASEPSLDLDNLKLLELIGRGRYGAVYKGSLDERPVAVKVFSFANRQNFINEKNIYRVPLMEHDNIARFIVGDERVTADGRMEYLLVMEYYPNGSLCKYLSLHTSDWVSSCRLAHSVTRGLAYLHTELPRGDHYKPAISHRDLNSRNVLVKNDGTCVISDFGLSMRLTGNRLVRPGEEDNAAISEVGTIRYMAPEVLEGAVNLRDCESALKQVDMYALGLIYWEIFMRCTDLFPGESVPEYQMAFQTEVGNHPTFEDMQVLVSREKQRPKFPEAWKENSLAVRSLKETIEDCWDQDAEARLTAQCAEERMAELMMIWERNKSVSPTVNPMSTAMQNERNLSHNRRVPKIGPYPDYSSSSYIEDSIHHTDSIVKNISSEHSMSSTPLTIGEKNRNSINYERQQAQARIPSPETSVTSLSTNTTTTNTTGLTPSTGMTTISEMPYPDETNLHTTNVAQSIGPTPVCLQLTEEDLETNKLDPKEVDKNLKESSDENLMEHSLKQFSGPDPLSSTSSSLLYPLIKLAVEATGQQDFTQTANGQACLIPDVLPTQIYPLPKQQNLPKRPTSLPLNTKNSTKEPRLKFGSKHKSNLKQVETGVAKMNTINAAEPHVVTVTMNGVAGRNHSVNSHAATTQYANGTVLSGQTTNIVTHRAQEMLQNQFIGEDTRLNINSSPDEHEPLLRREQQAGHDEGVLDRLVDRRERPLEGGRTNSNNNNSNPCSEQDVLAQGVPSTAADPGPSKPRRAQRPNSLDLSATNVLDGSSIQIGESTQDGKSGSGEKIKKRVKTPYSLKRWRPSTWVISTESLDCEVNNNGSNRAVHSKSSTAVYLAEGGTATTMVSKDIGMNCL
T5 sequence (Q9HBH9 whole entry): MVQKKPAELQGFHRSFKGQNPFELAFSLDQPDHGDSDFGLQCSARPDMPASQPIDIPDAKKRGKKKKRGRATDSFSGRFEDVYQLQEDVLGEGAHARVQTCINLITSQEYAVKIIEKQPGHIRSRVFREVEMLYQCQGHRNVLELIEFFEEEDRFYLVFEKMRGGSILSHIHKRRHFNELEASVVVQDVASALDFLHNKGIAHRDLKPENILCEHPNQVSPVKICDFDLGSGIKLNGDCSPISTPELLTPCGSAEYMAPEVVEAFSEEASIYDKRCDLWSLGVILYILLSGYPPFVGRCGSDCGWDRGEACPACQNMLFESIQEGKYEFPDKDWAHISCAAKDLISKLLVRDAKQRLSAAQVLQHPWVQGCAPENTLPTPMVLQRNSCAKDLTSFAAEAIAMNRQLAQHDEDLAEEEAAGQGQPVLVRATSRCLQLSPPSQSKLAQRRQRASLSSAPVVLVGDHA
T4 sequence (Q02750 whole entry): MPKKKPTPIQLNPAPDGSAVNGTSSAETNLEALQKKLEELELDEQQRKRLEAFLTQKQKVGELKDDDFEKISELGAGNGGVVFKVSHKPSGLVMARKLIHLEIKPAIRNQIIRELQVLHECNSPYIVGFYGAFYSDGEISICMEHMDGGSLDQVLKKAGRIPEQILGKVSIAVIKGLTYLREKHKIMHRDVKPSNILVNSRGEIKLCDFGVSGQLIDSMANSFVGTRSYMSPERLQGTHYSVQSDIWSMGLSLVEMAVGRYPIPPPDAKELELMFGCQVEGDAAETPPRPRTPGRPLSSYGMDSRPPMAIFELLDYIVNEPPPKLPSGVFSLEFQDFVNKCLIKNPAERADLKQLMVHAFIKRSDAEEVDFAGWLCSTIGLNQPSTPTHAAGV

In the case of `O=c1ccc(-c2cnc(OCC(F)(F)F)nc2)nn1Cc1cncc(F)c1` [EDG-5506], the “Maximum Inhibition (%)” value in [1] (human soleus myofibrils) amounted to 79%. Besides, the IC50 in [1] (human soleus, 66% Type I, 33% IIa, IIx, at pCa 50) was 1100 nM; in [2] it was greater than 100000 nM; in [3] it was 700 nM. Besides, the “effect on force, cardiac muscle fibers” value in [4] is recorded as “no effect”. The “central nucleation in soleus” value in [5] was “decreased central nucleation”. Besides, the “binding, % of control” value in assay [6] is given as 99 % of control; in [7], 93 % of control; in assay [8] it was 78 % of control; in assay [9], 92 % of control; in [10], 100 % of control; in [11], 95 % of control. In addition, the “binding, % of control” value in assay [12] is listed as 88 % of control.
